Results reported in US20240390301A1, “COMBINATIONS OF PERIPHERAL 5-HT2A RECEPTOR ANTAGONISTS AND CENTRAL 5-HT2A RECEPTOR AGONISTS” (priority 2021, published 2024).
Where two headings read alike, the source gives them in different places.

Key:
5-HT2A receptor [1] = molecular target: T1, 5-HT2A receptor (Homo sapiens, UniProt P28223); assay: 5-HT2A radioligand binding with [3H]ketanserin
T1 construct: WuXi AppTec (Hong Kong) Limited (contract laboratory that ran the assay)
Procedure: The binding affinities of key peripheral 5-HT2A receptor antagonists, as well as reference 5-HT2A agonists, at the ketanserin binding site of the 5-HT2A receptor and the mesulergine binding site of the 5-HT2C receptor were determined in radioligand binding experiments.
Method. Affinity of the test compounds for the 5-HT2A and 5-HT2C receptors was determined in radioligand binding experiments with [^3H] ketanserin and [^3H] mesulergine, respectively, by WuXi AppTec (Hong Kong) Limited, using methods adapted from the literature and under conditions described in Table 1.

5-HT2A receptor [2] = molecular target: T1, 5-HT2A receptor; assay: FLIPR Ca2+ flux functional assay, antagonist activity at 5-HT2A; format: cell-based; settings: for 5-HT2A % Inh @ Max Dose: at max dose
Procedure: Key peripheral 5-HT2A receptors antagonists were tested for antagonist activity at several serotonin (5-HT) receptor subtypes (5-HT2A and 5-HT2B) using Ca^2+ flux functional assays, with the results summarized in Table 3. […] The ability to block peripheral 5-HT2B receptors in addition to 5-HT2A receptors is advantageous in the context of the present disclosure, as such blockade is likely to mitigate the potential cardiac valvulopathy induced by 5-HT2B receptor agonists. This is expected to be a potential side effect of many classical psychedelics, which activate 5-HT2B receptors as a secondary target. Accordingly, xylamidine and BW501C67 are preferred over Compound 14a for use in combination with 5-HT2A receptor agonists that also activate 5-HT2B receptors, since they also block this important off target. When taken together with the binding data presented above, xylamidine and BW501C67 appear to be potent pan-antagonists for 5-HT2-type receptors, whereas Compound 14a is selective for 5-HT2A receptors specifically.
Functional Assays at 5-HT2A and 5-HT2B. Antagonist activity at 5-HT2A and 5-HT2B receptors was determined using a FLIPR Ca^2+ flux assay at WuXi AppTec (Hong Kong) Limited according to their standard protocols. Briefly, stably transfected HEK293 cells expressing the receptor of interest were grown and plated in a 384 well plate and incubated at 37° C. and 5% CO2 overnight. This was combined with a fluorescent dye (Fluo-4 Direct™) to make a final assay concentration of 2.5 mM. Compounds were diluted 1:3.16 for 10 points and 750 nL was added to a 384 well compound plate using ECHO along with 30 μL assay buffer. The fluorescent dye was then added to the assay plate along with assay buffer to a final volume of 40 μL. The cell plate was incubated for 50 min at 37° C. and 5% CO2 and placed into the FLIPR Tetra along with the compound plate. 10 μL of references and compounds were then transferred from the compound plate into the cell plate and the fluorescent signal was read. Next, 10 μL of a 6× solution of 5-carboxamidotryptamine (5-CT) at the calculated EC80 was added and the fluorescent signal read again. Finally, the Max-Min signal was calculated for the runs with and without agonist.

in vitro = settings: for fraction unbound at 4 h, 5 μM: pH 7.4
Procedure: Method 1. Aliquots of 50 μL loading matrix containing test compound (2 μM final incubation concentration) or control compound in triplicate were transferred to a Sample Collection Plate. The samples were matched with opposite blank buffer to obtain a final volume of 100 μL, with a volume ratio of matrix: Dialysis Buffer of 1:1 (v:v) in each well. Stop solution (200 ng/ml tolbutamide and 200 ng/mL labetalol in ACN) was added to these TO samples of test compound and control compound. The plate was sealed and shaken at 800 rpm for 10 min. An aliquot of 100 μL of the loading matrix containing test compound or control compound was transferred to the donor side of each dialysis well in triplicate and 100 μL of the Dialysis Buffer was loaded to the receiver side of the well. Then the plate was rotated at approximately 100 rpm in a humidified incubator with 5% CO2 at 37±1° C. for 4 hours. At the end of the dialysis, aliquots of 50 μL samples from the buffer side and matrix side of the dialysis device were taken into new 96-well plates (Sample Collection Plates). An equal volume of opposite blank matrix (buffer or matrix) in each sample was added to reach a final volume of 100 μL, with volume ratio of matrix: Dialysis Buffer of 1:1 (v:v) in each well. All samples were further processed by protein precipitation before LC-MS/MS analysis.
Method 2. Aliquots (200 μL) of positive controls and test compounds at 5 μM (triplicates) were separately added to the plasma chamber and […] of phosphate buffered saline (pH 7.4) was added to the buffer chamber of the inserts. After sealing the rapid equilibrium dialysis (RED) device with an adhesive film, dialysis was performed in an incubator at 37° C. with shaking at 100 RPM for 4 hours. Aliquots (50 μL) of warfarin and test compounds were added to four 0.5 mL micro fuse tubes. Two aliquots were frozen immediately (0-minute sample). The other two aliquots were incubated at 37° C. for 4 hours along with the RED device. Following dialysis, an aliquot of 50 μL was removed from each well (both plasma and buffer side) and diluted with an equal volume of opposite matrix (dialyzed with the other matrix) to nullify the matrix effect. Similarly, 50 μL of buffer was added to recovery and stability samples. An aliquot of 100 μL was used for LC-MS/MS analysis following protein precipitation with ACN containing internal standard.

[3] = Metabolic stability in rat liver microsomes; format: in vitro ADME; settings: for half-life at 1 μM / microsomal CLint at 1 μM: both sexes, rat, microsomes, pH 7.4
Procedure: RLM Stability. Pooled RLM from adult male and female donors (Xenotech R1000) were used. Microsomal incubations were carried out in multi-well plates. Liver microsomal incubation medium consisted of PBS (100 mM, pH 7.4), MgCl2 (1 mM), and NADPH (1 mM), with 0.50 mg of liver microsomal protein per mL. Control incubations were performed by replacing the NADPH-cofactor system with PBS. Test compounds (1 μM, final solvent concentration 1.0%) were incubated with microsomes at 37° C. with constant shaking. Six time points over 60 minutes were analyzed, with 60 μL aliquots of the reaction mixture being drawn at each time point. The reaction aliquots were stopped by adding 180 μL of cold (4° C.) acetonitrile containing 200 ng/mL tolbutamide and 200 ng/ml labetalol as internal standards (IS), followed by shaking for 10 minutes, and then protein sedimentation by centrifugation at 4,000 rpm for 20 minutes at 4° C. Supernatant samples (80 μL) were diluted with water (240 μL) and analyzed for parent compound remaining using a fit-for-purpose liquid chromatography-tandem mass spectrometry (LC-MS/MS) method.
Data Analysis. The elimination constant (kel), half-life (t1/2), and intrinsic clearance (CLint) were determined in a plot of […] versus time, using linear regression analysis.

[4] = RLM, 1 μM, 0.50 mg protein per mL, NADPH
[5] = HEK293 stable cell line, 1 nM [3H]ketanserin, 1 h, 25° C., read-out: 5-HT2A Ki (nM) ([3H]ketanserin)
[6] = antagonist activity, Ca2+ flux, HEK293 cells, agonist at EC80, read-out: 5-HT2A IC50

T1 sequence (P28223 whole entry): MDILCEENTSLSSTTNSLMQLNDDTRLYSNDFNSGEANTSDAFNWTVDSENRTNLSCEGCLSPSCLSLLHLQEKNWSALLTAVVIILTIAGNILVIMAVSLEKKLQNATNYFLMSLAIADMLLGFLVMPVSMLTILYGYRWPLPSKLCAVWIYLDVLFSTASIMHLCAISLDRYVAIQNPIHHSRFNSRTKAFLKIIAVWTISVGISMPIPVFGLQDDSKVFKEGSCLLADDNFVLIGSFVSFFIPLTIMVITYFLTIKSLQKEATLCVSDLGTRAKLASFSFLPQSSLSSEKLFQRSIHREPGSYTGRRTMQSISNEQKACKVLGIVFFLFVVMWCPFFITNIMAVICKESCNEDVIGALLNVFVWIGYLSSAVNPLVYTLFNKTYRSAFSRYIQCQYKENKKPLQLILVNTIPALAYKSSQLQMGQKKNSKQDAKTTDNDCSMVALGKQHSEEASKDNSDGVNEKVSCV

| SMILES | Ki (5-HT2A receptor [1]) | IC50 (5-HT2A receptor [2]) | 5-HT2A % Inh @ Max Dose (5-HT2A receptor [2]; antagonist activity, Ca2+ flux) | fraction unbound at 4 h, 2 μM (in vitro; rat, plasma) | Metabolic stability in RLM [3] | half-life at 1 μM [3, 4] | microsomal CLint at 1 μM [3, 4] | fraction unbound at 4 h, 5 μM (in vitro; rat, plasma) | Ki (5-HT2A receptor [1]; [5]) | IC50 (5-HT2A receptor [2]; [6]) | Mean % bound (rat plasma protein binding) (in vitro; Method 2: RED, 5 μM, 4 hours, 37° C.) | Clint [3, 4] | t1/2 [3, 4] |
| --- | --- | --- | --- | --- | --- | --- | --- | --- | --- | --- | --- | --- | --- |
| CC(CNC(=N)CNc1ccccc1)Oc1cccc(Cl)c1.O=CO (centres unmarked) [BW501C67, N-(2-(3-chlorophenoxy)propyl)-2-(phenylamino)acetimidamide formate] | 0.42 nM | 14.5 nM | 100.13% | 0.107 | poor metabolic stability | 2.1 min | 658 µL/min/mg |  |  |  |  |  |  |
| COc1cccc(C(=O)Nc2ccc(OCCN3CCOCC3)c(-c3ccnn3C)c2)c1 [temanogrel] |  |  |  |  |  |  |  | 0.091 |  |  |  |  |  |
| CC(C)COc1ccc(CNC(=O)N(Cc2ccc(F)cc2)C2CCN(C(=O)CC[C@H](N)C(=O)O)CC2)cc1 [Compound 14a, (S)-2-amino-5-(4-(1-(4-fluorobenzyl)-3-(4-isobutoxybenzyl)ureido)piperidin-1-yl)-5-oxopentanoic acid] |  |  | 100.01% |  | highly stable | > 145 min | < 9.6 µL/min/mg | 0.06 | 3.83 nM | 297 nM |  |  |  |
| COc1cccc(CCc2ccccc2OCC(CN(C)C)OC(=O)CCC(=O)O)c1 (centres unmarked) [sarpogrelate] |  |  |  |  |  |  |  | 0.002 |  |  |  |  |  |
| COc1cccc(OC(C)CNC(=N)Cc2cccc(C)c2)c1.O=C(O)C(F)(F)F (centres unmarked) [xylamidine, N-(2-(3-methoxyphenoxy)propyl)-2-(m-tolyl) acetimidamide trifluoroacetate] |  |  | 99.81% |  | poor metabolic stability |  |  |  | 0.55 nM | 24 nM | 65.6% | 709.1 µL/min/mg | 2.0 min |
